Measurements: EPA's ToxValDB 9.5 (doi:10.2903/j.efsa.2007.117r)
Converted amounts (≈) assume the structure as drawn.

Columns and labels:
Aphidius rhopalosiphi = conditions: chronic/long-term; mortality
Apis mellifera = conditions: acute; duration: 48 hours; oral; unspecified; mortality
Bibionidae = conditions: chronic/long-term; duration: 24 days; reproduction
Bird = conditions: for LD50: oral, mortality
Canidae = conditions: subchronic; duration: 90 days; oral; Dog Other
Daphnia magna = conditions: chronic/long-term; duration: 21 days; reproduction
Oryctolagus sp. = conditions: reproduction developmental; reproduction
Tagia sp. = conditions: acute; duration: 14 days; mortality

With NC1=C(Cl)C(=O)c2ccccc2C1=O [2-Amino-3-chloro-1,4-naphthoquinone] the LEL (Aphidius rhopalosiphi) was 3810 g/ha, the LD50 (Apis mellifera) was over 28 µg/piece and the NOEC (Bibionidae) was 0.063 mg/L. It also gave an LD50 (Bird; acute, unspecified) of over 2000 mg/kg-day, an NOAEL (Bird; chronic/long-term) of 36.2 mg/kg-day and an LD50 (Bird; short-term, feed) of 394 mg/kg-day. It also gave an NOAEL (Canidae) of 3 mg/kg-day, an NOEC (Daphnia magna) of 0.0021 mg/L and an LC50 (Oncorhynchus mykiss; acute, duration: 96 hours, mortality) of 0.063 µg/mL (≈ 0.303 µM). The NOEC (Oncorhynchus mykiss; chronic/long-term, duration: 21 days, behavior) was 0.02 mg/L, the NOAEL (Oryctolagus sp.) was 17.5 mg/kg-day and the LD50 (Rattus norvegicus; acute, oral, mortality) was 500 mg/kg-day. It also gave an NOAEL (Rattus norvegicus; chronic, duration: 2 years, organ weight) of 0.21 mg/kg-day, an NOAEL (Rattus norvegicus; reproduction developmental, body weight) of 5 mg/kg-day and an LC50 (Tagia sp.) of 125 mg/kg.
